# Data as given in patent US20120101093A1, “SUBSTITUTED IMIDAZO[1,2-A]PYRIDINE DERIVATIVES, PHARMACEUTICAL COMPOSITIONS, AND METHODS OF USE AS BETA-SECRETASE INHIBITORS” (HIGH POINT PHARMACEUTICALS, LLC, priority 2009, published 2012).
# Target: T1, BACE-1 enzyme (Homo sapiens, UniProt P56817)
# T1 construct: purchased R & D Systems 931AS
# Experiment: BACE Fluorescence Resonance Energy Transfer (FRET) Assay
# Format: biochemical
# Settings: pH 4-4.5, 30 min pre-incubation, about 1.5 hours reaction
# Description: BACE Fluorescence Resonance Energy Transfer (FRET) Assay
# In the following assay, the proteolytic activity of BACE is measured by observing cleavage of a fluorescent group from a peptide substrate containing a rhodamine fluorescent donor and a quenching acceptor.
# The inhibitory activity of compounds of Formula (I) may be compared to a statine derived control inhibitor STA200 (MP Biomedical Cat. #STA-200). The cleavage reaction occurs when a BACE-1 substrate (Invitrogen, Cat. #P2986) was added to a reaction mixture containing BACE-1 enzyme (R & D Systems, Cat. #931AS) and allowed to proceed for about 1.5 hours. Fluorescence, used as a marker of BACE activity, is monitored using 540 nm excitation and 585 nm emission wavelengths (Envision, Perkin Elmer).
# A typical assay reaction contains BACE-1 enzyme—in assay buffer (50 mM sodium acetate, pH 4-4.5, 0.01% CHAPS (3-[(3-Cholamidopropyl)dimethylammonio]-1-propanesulfonate), 0.0125% TritonX-100, 0.006% EDTA) which is pre-incubated for 30 minutes with test compound in 7.5% DMSO. The reaction is initiated with the addition of BACE-1 substrate in assay buffer and allowed to proceed for about 1.5 hours at room temperature. Assays are conducted in black 384-well microtiter plates and scanned at room temperature using 540 nm excitation and 585 nm emission wavelengths.
# In some instances, the percent inhibition at a given concentration is reported instead of the IC50.
# T1 sequence (P56817 46-457 limits assumed): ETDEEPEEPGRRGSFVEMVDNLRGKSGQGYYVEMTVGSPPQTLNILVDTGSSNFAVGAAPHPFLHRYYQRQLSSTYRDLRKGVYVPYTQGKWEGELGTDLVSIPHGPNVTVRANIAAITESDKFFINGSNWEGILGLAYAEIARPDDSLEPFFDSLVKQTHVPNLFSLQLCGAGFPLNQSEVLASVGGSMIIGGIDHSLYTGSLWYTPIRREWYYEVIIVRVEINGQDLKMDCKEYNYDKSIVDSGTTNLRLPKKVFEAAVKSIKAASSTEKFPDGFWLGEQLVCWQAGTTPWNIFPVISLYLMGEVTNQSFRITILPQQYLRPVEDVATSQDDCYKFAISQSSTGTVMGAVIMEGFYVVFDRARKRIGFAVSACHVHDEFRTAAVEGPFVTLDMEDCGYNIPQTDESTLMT
row,SMILES,IC50 [µM]
1,"O=C(Nc1nc2cc(OCc3ccc(C(F)(F)F)cc3)ccc2[nH]1)c1cn2cc(Cl)ccc2n1 [Example 21, 6-Chloro-imidazo[1,2-a]pyridine-2-carboxylic acid [5-(4-trifluoromethyl-benzyloxy)-1H-benzoimidazol-2-yl]-amide]",0.14
2,"Cc1cccn2cc(C(=O)Nc3nc4cc(OCc5ccc(C(F)(F)F)cc5)ccc4[nH]3)nc12 [Example 22, 8-Methyl-imidazo[1,2-a]pyridine-2-carboxylic acid [5-(4-trifluoromethyl-benzyloxy)-1H-benzoimidazol-2-yl]-amide]",0.19
3,"O=C(Nc1nc2cc(OCc3ccc(F)cc3F)ccc2[nH]1)c1cn2cc(Cl)ccc2n1 [Example 24, 6-Chloro-imidazo[1,2-a]pyridine-2-carboxylic acid [5-(2,4-difluoro-benzyloxy)-1H-benzoimidazol-2-yl]-amide]",0.13
4,"COc1cccc(-c2ccc3[nH]c(NC(=O)c4cn5c(C)cccc5n4)nc3c2)c1 [Example 25, 5-Methyl-imidazo[1,2-a]pyridine-2-carboxylic acid [5-(3-methoxy-phenyl)-1H-benzoimidazol-2-yl]-amide]",0.1
5,"Cc1cccn2cc(C(=O)Nc3nc4cc(-c5ccccc5)ccc4[nH]3)nc12 [Example 29, 8-Methyl-imidazo[1,2-a]pyridine-2-carboxylic acid (5-phenyl-1H-benzoimidazol-2-yl)-amide]",1.29
6,"Cc1cccc2nc(C(=O)Nc3nc4cc(OC5CCCC5)ccc4[nH]3)cn12 [Example 30, 5-Methyl-imidazo[1,2-a]pyridine-2-carboxylic acid (5-cyclopentyloxy-1H-benzoimidazol-2-yl)-amide]",4.15
7,"Cc1cccn2cc(C(=O)Nc3nc4cc(OC5CCCC5)ccc4[nH]3)nc12 [Example 31, 8-Methyl-imidazo[1,2-a]pyridine-2-carboxylic acid (5-cyclopentyloxy-1H-benzoimidazol-2-yl)-amide]",2.69
8,"Cc1cccn2cc(C(=O)Nc3nc4cc(OCc5ccc(OC(F)(F)F)cc5)ccc4[nH]3)nc12 [Example 33, 8-Methyl-imidazo[1,2-a]pyridine-2-carboxylic acid [5-(4-trifluoromethoxy-benzyloxy)-1H-benzoimidazol-2-yl]-amide]",1.36
9,"O=C(Nc1nc2cc(-c3cccc(C(F)(F)F)c3)ccc2[nH]1)c1cn2cc(Cl)ccc2n1 [Example 34, 6-Chloro-imidazo[1,2-a]pyridine-2-carboxylic acid [5-(3-trifluoromethyl-phenyl)-1H-benzoimidazol-2-yl]-amide]",2.53
10,"Cc1cccc2nc(C(=O)Nc3nc4cc(N5CCC(c6ccccc6)CC5)ccc4[nH]3)cn12 [Example 36, 5-Methyl-imidazo[1,2-a]pyridine-2-carboxylic acid [5-(4-phenyl-piperidin-1-yl)-1H-benzoimidazol-2-yl]-amide]",1.46
11,"Cc1cccn2cc(C(=O)Nc3nc4cc(N5CCC(c6ccccc6)CC5)ccc4[nH]3)nc12 [Example 37, 8-Methyl-imidazo[1,2-a]pyridine-2-carboxylic acid [5-(4-phenyl-piperidin-1-yl)-1H-benzoimidazol-2-yl]-amide]",1.8
12,"Cc1cccc2nc(C(=O)Nc3nc4cc(-c5ccncc5)ccc4[nH]3)cn12 [Example 38, 5-Methyl-imidazo[1,2-a]pyridine-2-carboxylic acid (5-pyridin-4-yl-1H-benzoimidazol-2-yl)-amide]",3.14
13,"COCCCOc1cccc(-c2ccc3[nH]c(NC(=O)c4cn5c(C)cccc5n4)nc3c2)c1 [Example 39, 5-Methyl-imidazo[1,2-a]pyridine-2-carboxylic acid {5-[3-(3-methoxy-propoxy)-phenyl]-1H-benzoimidazol-2-yl}-amide]",1.32
14,"Cc1cccc2nc(C(=O)Nc3nc4cc(-c5cccc(OC6CCCCC6)c5)ccc4[nH]3)cn12 [Example 40, 5-Methyl-imidazo[1,2-a]pyridine-2-carboxylic acid [5-(3-cyclohexyloxy-phenyl)-1H-benzoimidazol-2-yl]-amide]",2.55
15,"Cc1cccc2nc(C(=O)Nc3nc4cc(-c5cnn(C)c5)ccc4[nH]3)cn12 [Example 41, 5-Methyl-imidazo[1,2-a]pyridine-2-carboxylic acid [5-(1-methyl-1H-pyrazol-4-yl)-1H-benzoimidazol-2-yl]-amide]",3.06
16,"Cc1cccc2nc(C(=O)Nc3nc4cc(-c5cccc(N6CCOCC6)c5)ccc4[nH]3)cn12 [Example 44, 5-Methyl-imidazo[1,2-a]pyridine-2-carboxylic acid [5-(3-morpholin-4-yl-phenyl)-1H-benzoimidazol-2-yl]-amide]",4.37

row,SMILES,IC50 [µM]
1,"Cc1cccc2nc(C(=O)Nc3nc4cc(-c5cccc(F)c5)ccc4[nH]3)cn12 [Example 45, 5-Methyl-imidazo[1,2-a]pyridine-2-carboxylic acid [5-(3-fluoro-phenyl)-1H-benzoimidazol-2-yl]-amide]",1.49
2,"Cc1cccn2cc(C(=O)Nc3nc4cc(-c5cc(F)cc(Cl)c5)ccc4[nH]3)nc12 [Example 57, 8-Methyl-imidazo[1,2-a]pyridine-2-carboxylic acid [5-(3-chloro-5-fluoro-phenyl)-1H-benzoimidazol-2-yl]-amide]",0.4
3,"Cc1ccc2nc(C(=O)Nc3nc4cc(OCc5ccc(C(F)(F)F)cc5)ccc4[nH]3)cn2c1 [Example 60, 6-Methyl-imidazo[1,2-a]pyridine-2-carboxylic acid [5-(4-trifluoromethyl-benzyloxy)-1H-benzoimidazol-2-yl]-amide]",0.45
4,"Cc1cccc2nc(C(=O)Nc3nc4cc(-c5cc(Cl)cc(C(F)(F)F)c5)ccc4[nH]3)cn12 [Example 66, 5-Methyl-imidazo[1,2-a]pyridine-2-carboxylic acid [6-(3-chloro-5-trifluoromethyl-phenyl)-1H-benzoimidazol-2-yl]-amide]",0.28
5,"Cc1cccc2nc(C(=O)Nc3nc4cc(-c5cc(C(F)(F)F)ccc5Cl)ccc4[nH]3)cn12 [Example 67, 5-Methyl-imidazo[1,2-a]pyridine-2-carboxylic acid [5-(2-chloro-5-trifluoromethyl-phenyl)-1H-benzoimidazol-2-yl]-amide]",0.53
6,"Cc1cccc2nc(C(=O)Nc3nc4cc(-c5ccc(S(C)(=O)=O)cc5)ccc4[nH]3)cn12 [Example 73, 5-Methyl-imidazo[1,2-a]pyridine-2-carboxylic acid [5-(4-methanesulfonyl-phenyl)-1H-benzoimidazol-2-yl]-amide]",1.24
7,"Cc1cccc2nc(C(=O)Nc3nc4cc(-c5cccc(S(C)(=O)=O)c5)ccc4[nH]3)cn12 [Example 74, 5-Methyl-imidazo[1,2-a]pyridine-2-carboxylic acid [5-(3-methanesulfonyl-phenyl)-1H-benzoimidazol-2-yl]-amide]",1.72
8,"Cc1cccn2cc(C(=O)Nc3nc4cc(-c5cccc(S(C)(=O)=O)c5)ccc4[nH]3)nc12 [Example 75, 8-Methyl-imidazo[1,2-a]pyridine-2-carboxylic acid [5-(3-methanesulfonyl-phenyl)-1H-benzoimidazol-2-yl]-amide]",2.07
9,"CCOc1ccc(-c2ccc3[nH]c(NC(=O)c4cn5cccc(C)c5n4)nc3c2)cc1F [Example 81, 8-Methyl-imidazo[1,2-a]pyridine-2-carboxylic acid [5-(4-ethoxy-3-fluoro-phenyl)-1H-benzoimidazol-2-yl]-amide]",1.72
10,"Cc1cccc2nc(C(=O)Nc3nc4cc(C5CCCCC5)ccc4[nH]3)cn12 [Example 85, 5-Methyl-imidazo[1,2-a]pyridine-2-carboxylic acid (5-cyclohexyl-1H-benzoimidazol-2-yl)-amide]",1.93
11,"Cc1cccn2cc(C(=O)Nc3nc4cc(-c5cc(Cl)cc(C(F)(F)F)c5)ccc4[nH]3)nc12 [Example 86, 8-Methyl-imidazo[1,2-a]pyridine-2-carboxylic acid [5-(3-chloro-5-trifluoromethyl-phenyl)-1H-benzoimidazol-2-yl]-amide]",0.28
12,"Cc1cccn2cc(C(=O)Nc3nc4cc(-c5cc(Cl)ccc5Cl)ccc4[nH]3)nc12 [Example 88, 8-Methyl-imidazo[1,2-a]pyridine-2-carboxylic acid [5-(2,5-dichloro-phenyl)-1H-benzoimidazol-2-yl]-amide]",0.29
13,"COc1ccc(-c2ccc3[nH]c(NC(=O)c4cn5cccc(C)c5n4)nc3c2)cc1C(F)(F)F [Example 89, 8-Methyl-imidazo[1,2-a]pyridine-2-carboxylic acid [5-(4-methoxy-3-trifluoromethyl-phenyl)-1H-benzoimidazol-2-yl]-amide]",2.28
14,"Cc1cccc2nc(C(=O)Nc3nc4cc(-c5ccc(OC(C)C)c(Cl)c5)ccc4[nH]3)cn12 [Example 90, 5-Methyl-imidazo[1,2-a]pyridine-2-carboxylic acid [5-(3-chloro-4-isopropoxy-phenyl)-1H-benzoimidazol-2-yl]-amide]",0.49
15,"Cc1cccc2nc(C(=O)Nc3nc4cc(-c5ccc(C(F)(F)F)cc5Cl)ccc4[nH]3)cn12 [Example 91, 5-Methyl-imidazo[1,2-a]pyridine-2-carboxylic acid [5-(2-chloro-4-trifluoromethyl-phenyl)-1H-benzoimidazol-2-yl]-amide]",0.44
